Consider five molecules from patent US11612612B2, “Pharmaceutical compositions” (CIPLA LIMITED, priority 2016, dated 2023).

Counter-ions that a name gives are not always drawn.

A short description of data set [1]: Caco-2 bidirectional assay, effect of piperine on permeability of darunavir. The settings on record: human, Caco-2, pH 7.4. It is filed as in vitro ADME. The method, then:
(§1) Cells were treated with drugs as follows:
(§2) The sample were analyzed on LCMS-MS.
On the technique in general: Caco-2 cells form a polarised layer with tight junctions and transporters.

Data set [2] can be described thus: Caco-2 bidirectional assay, effect of piperine on permeability of dolutegravir. The following applies: human, Caco-2, pH 7.4. The method, then:
as §1
(§3) The samples were analyzed on LCMS-MS.

A short description of data set [3]: Caco-2 bidirectional assay, effect of piperine and tetrahydropiperine on permeability of TDF. The settings on record: human, Caco-2, pH 7.4.
Description: Caco-2 cells were cultured in MEM media with 10% serum and seeded at a density of 75000 cells per mL and cultured for 21 days in a 24-well trans-well plate at 37° C., 5% CO2. The monolayer integrity was checked intermittently (Day 0-21) using Trans Epithelial Electric Resistance (TEER). Cells were treated with drugs as follows:
400 μL samples were added to the wells as per the plate setup to the apical side in duplicates with 800 μL HBSS pH 7.4 in the basal wells. Samples were collected at 60, 90 and 120 minutes from the basal side. Mass balance samples at 0 and 120 minutes were collected from the apical side.
For B-A, 800 μL of the respective dilutions were added to the basal side in duplicates with 400 μL HBSS pH 7.4 in the apical wells. Samples were collected at 60, 90 and 120 minutes from the apical side. Mass balance samples at 0 and 120 minutes were collected from the basal side.
The sample were analyzed on LCMS-MS. At the end of the experiment the monolayer integrity was checked using and Lucifer yellow, calculating the % rejection of Lucifer yellow by incubating cells with 100 μg/mL Lucifer.
For Lucifer yellow, % Lucifer Yellow Passage=[RFU (test)−RFU (blank)/RFU (equilibrium)−RFU (blank)]*100
The next data set can be described thus: in vitro. The settings on record: human, Caco-2, pH 7.4.
The subject of data set [4] is Caco-2 cells. The data set can be described thus: Caco-2 bidirectional assay, effect of piperine on permeability of dolutegravir. The settings on record: in words. The method, then:
as §1, §3

The subject of data set [5] is Caco-2 cells. Kind of data set: Caco-2 unidirectional assay (A-B), permeability. On the procedure: as §1
(§4) Stock preparations: 10 mM stocks of all the drugs were prepared in DMSO. The test concentrations were further prepared in HBSS buffer containing 10 mM MES hydrate pH 6.8 as per the plate plan. Also, HBSS buffer with 10 mM HEPES with pH 7.4 was prepared.
as §2

Data set [6] can be described thus: Caco-2 unidirectional assay (A-B), permeability. The following applies: human, Caco-2. The method, then:
as §1, §4, §2

Another data set has as its target P-gp (Homo sapiens, UniProt P08183). Kind of data set: in vitro. The following applies: pH 7.4, drug alone (Digoxine 10 μM; TAF 100 μM). It is filed as cell-based. The method, then:
as §1, §2

The conditions of data set [7]: male, Wistar, rat, in vivo, 300 mg. The method, then:
The objective of this non-GLP study was to determine the pharmacokinetics of the TDF alone and in combinations with piperine in different groups of male Wistar rats after single dose intravenous administration and oral administration. This study was performed with approval from the Institutional Animal Ethics Committee (IAEC) in accordance with the requirement of Committee for the Purpose of Control and Supervision of Experiments on Animals (CPCSEA), India.
An equal volume (4.72 mL) of each formulation was mixed in separate vials to get 5 mL/kg.
An equal volume (5.61 mL) of each formulation was mixed in separate vials to get 5 mL/kg.
Bioanalysis was performed using fit-for-purpose LC-MS/MS method for the quantification of TDF and PMPA in rat plasma samples. […]
Plasma pharmacokinetic parameters were calculated using the non-compartmental analysis tool of Phoenix software (Version 6.3) and were determined from individual animals in each group. The peak plasma concentration (Cmax), time to achieve peak plasma concentration (Tmax), the area under the plasma concentration-time curve (AUC0-t and AUCinf), AUC Extra (%), elimination half-life (T½), clearance (CL), volume of distribution Vd (L/kg) and Mean residence time (MRT) were calculated from the intravenous group. […]

Chain of P-gp (P08183 whole entry): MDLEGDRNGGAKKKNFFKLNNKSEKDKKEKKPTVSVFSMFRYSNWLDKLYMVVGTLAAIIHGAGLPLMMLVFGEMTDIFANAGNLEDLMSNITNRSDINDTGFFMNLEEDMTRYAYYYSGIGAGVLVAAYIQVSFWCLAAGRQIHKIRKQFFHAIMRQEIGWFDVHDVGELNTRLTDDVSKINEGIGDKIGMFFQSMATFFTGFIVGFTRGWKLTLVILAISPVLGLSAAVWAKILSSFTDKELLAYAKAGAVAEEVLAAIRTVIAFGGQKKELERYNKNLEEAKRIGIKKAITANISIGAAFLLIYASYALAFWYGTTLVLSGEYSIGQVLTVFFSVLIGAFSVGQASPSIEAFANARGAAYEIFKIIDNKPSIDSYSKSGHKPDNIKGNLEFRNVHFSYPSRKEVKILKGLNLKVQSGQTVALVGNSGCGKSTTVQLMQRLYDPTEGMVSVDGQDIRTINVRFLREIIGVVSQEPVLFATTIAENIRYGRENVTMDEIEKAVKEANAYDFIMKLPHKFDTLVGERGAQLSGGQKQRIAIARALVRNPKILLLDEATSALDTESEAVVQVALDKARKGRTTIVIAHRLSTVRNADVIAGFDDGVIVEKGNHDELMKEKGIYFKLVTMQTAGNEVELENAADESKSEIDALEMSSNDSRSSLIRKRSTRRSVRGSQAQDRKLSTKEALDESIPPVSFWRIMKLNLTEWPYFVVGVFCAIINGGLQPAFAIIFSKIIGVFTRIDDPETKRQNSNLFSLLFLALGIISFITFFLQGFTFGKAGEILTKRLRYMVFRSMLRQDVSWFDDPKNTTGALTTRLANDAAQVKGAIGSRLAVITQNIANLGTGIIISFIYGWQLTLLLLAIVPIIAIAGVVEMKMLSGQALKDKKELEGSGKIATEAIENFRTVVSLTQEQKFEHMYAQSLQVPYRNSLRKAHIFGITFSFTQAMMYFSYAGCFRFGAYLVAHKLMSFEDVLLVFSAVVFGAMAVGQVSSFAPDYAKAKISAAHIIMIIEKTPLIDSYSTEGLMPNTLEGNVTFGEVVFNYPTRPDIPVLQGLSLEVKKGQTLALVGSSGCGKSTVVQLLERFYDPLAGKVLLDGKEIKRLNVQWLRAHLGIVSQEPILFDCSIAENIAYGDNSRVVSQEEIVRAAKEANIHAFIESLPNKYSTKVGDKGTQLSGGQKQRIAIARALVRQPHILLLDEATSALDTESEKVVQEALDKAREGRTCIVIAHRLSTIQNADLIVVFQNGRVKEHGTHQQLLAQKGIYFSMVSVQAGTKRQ

In data set [1], `CC(C)CN(C[C@@H](O)[C@H](Cc1ccccc1)NC(=O)O[C@H]1CO[C@H]2OCC[C@H]21)S(=O)(=O)c1ccc(N)cc1` [Darunavir] had a Papp A→B at 120 min of 8.83 ×10⁻⁶ cm/s and a Papp B→A at 120 min of 21.7 ×10⁻⁶ cm/s.

For `C[C@H]1O[C@@H](O[C@H]2[C@@H](O)C[C@H](O[C@H]3[C@@H](O)C[C@H](O[C@H]4CC[C@@]5(C)[C@H](CC[C@@H]6[C@@H]5C[C@@H](O)[C@]5(C)[C@@H](C7=CC(=O)OC7)CC[C@]65O)C4)O[C@@H]3C)O[C@@H]2C)C[C@H](O)[C@@H]1O` [Digoxin], in data set [2], the Papp A→B at 120 min amounted to 4.5 ×10⁻⁶ cm/s and the Papp B→A at 120 min was 28.9 ×10⁻⁶ cm/s. In [3], the apparent permeability from apical to basolateral (Papp A→B) at 120 min stood at 0.816 ×10⁻⁶ cm/s and the basolateral-to-apical permeability (Papp B→A) at 120 min is 15.5 ×10⁻⁶ cm/s. In data set [1], this molecule yielded a Papp A→B at 120 min of 1.12 ×10⁻⁶ cm/s and a Papp B→A at 120 min of 14.2 ×10⁻⁶ cm/s. In addition, in “in vitro”, the Papp A→B came out at 1.94 ×10⁻⁶ cm/s and the Papp B→A stood at 20.5 ×10⁻⁶ cm/s.

As to `C[C@@H]1CCO[C@H]2Cn3cc(C(=O)NCc4ccc(F)cc4F)c(=O)c(O)c3C(=O)N12` [Dolutegravir], in the data set on Caco-2 cells [4], the Permeability classification entry is listed as “high permeable”. In data set [2], this molecule registered a Papp A→B at 120 min of 40.2 ×10⁻⁶ cm/s and an apparent permeability from basolateral to apical (Papp B→A) at 120 min of 84.3 ×10⁻⁶ cm/s.

For the molecule `CC(C)OC(=O)[C@H](C)N[P@](=O)(CO[C@H](C)Cn1cnc2c(N)ncnc21)Oc1ccccc1` [TAF, tenofovir alafenamide fumarate], the Permeability classification entry in the data set with Caco-2 cells [5] (in words) was “low to moderately permeable”. Moreover, in data set [6], the Papp A→B at 120 min, 50 μM stood at 5.86 ×10⁻⁶ cm/s and the apparent permeability from apical to basolateral (Papp A→B) at 120 min, 100 μM was 5.39 ×10⁻⁶ cm/s. For the same molecule, the inhibition at 120 min, 100 μM on P-gp amounted to 0%. In “in vitro”, this molecule displayed a Papp A→B at 120 min of 3.45 ×10⁻⁶ cm/s and an apparent permeability from basolateral to apical (Papp B→A) at 120 min of 17.8 ×10⁻⁶ cm/s.

As for `CC(C)OC(=O)OCOP(=O)(CO[C@H](C)Cn1cnc2c(N)ncnc21)OCOC(=O)OC(C)C` [TDF, tenofovir disoproxil fumarate], the Permeability classification entry in the data set on Caco-2 cells [5] (Caco-2) is listed as “low to moderately permeable”. Further, in [6], the Papp A→B at 120 min, 50 μM was determined as 6.58 ×10⁻⁶ cm/s and the Papp A→B at 120 min, 100 μM turned out to be 6.35 ×10⁻⁶ cm/s. In data set [3], this molecule registered a Papp A→B at 120 min of 2.55 ×10⁻⁶ cm/s; a Papp A→B at 120 min, 200 μM of 3.77 ×10⁻⁶ cm/s; an apparent permeability from basolateral to apical (Papp B→A) at 120 min of 15.2 ×10⁻⁶ cm/s; a Papp B→A at 120 min, 200 μM of 14.3 ×10⁻⁶ cm/s. The efflux ratio at 120 min, 200 μM in data set [3] was 3.79. For the same molecule, in [7], the Bioavailability was 34.39±6.07.

As usually defined, the Papp A→B is the apparent permeability from the apical to the basolateral side of a cell layer. A higher Papp A→B goes with ready permeation. As usually defined, the Papp B→A is the apparent permeability from the basolateral to the apical side of a cell layer. Usually inhibition stands for the share of the control response that was lost under treatment. A high value points to a response far below the control. By efflux ratio is commonly meant a quotient of directional permeabilities that is used to spot active efflux.
